“Also recorded” adds a separate entry of the source.
Key:
Type in all cases: in vivo, human
[1] = Sensory evaluation of Reb A, Reb D and Reb N solutions in water (Example 2); design: key to Bitterness: 1 = none; 2 = trace; 3 = faint; 4 = mild; 5 = moderate; 6 = definite; 7 = strong; 8 = very strong; 9 = extreme; settings: 500 ppm (wt/wt) in water, room temperature; for Sweetness Intensity (percent sucrose equivalent sweetness): two scientists, sucrose standards 6%, 7%, 8%; for Bitterness: intensity scale 1-9
Experimental: Solutions containing 500 ppm (wt/wt) of RebA, RebD and RebN, respectively, in water were prepared and evaluated at room temperature by two scientists with training and experience in the sensory evaluation of steviol glycosides. The samples were evaluated for sweetness intensity and other qualitative attributes. A set of sucrose standards were prepared by dissolving sugar into room temperature water (6%, 7%, 8% by weight) and used as references for sweetness intensity.

[2] = Sensory evaluation of 4-way blend in deionized water (Example 5); design: key to Bitterness / Licorice note: 0=none; 1=trace; 2=faint; 3=slight; 4=mild; 5=moderate; 6=definite; 7=strong; 8=very strong; 9=extreme; settings: 500 ppm in deionized water
Experimental: (§1) Method: Solutions containing 500 ppm Reb A or blends of RebA, RebB, RebD and RebN were prepared in deionized water and evaluated at room temperature by three scientists with training and experience in the sensory evaluation of steviol glycosides. The samples were evaluated for sweetness intensity and other qualitative attributes.

[3] = Sensory evaluation of three-way blends of reb A, reb B and reb N in water (Example 3); settings: 500 ppm (wt/wt) in water, room temperature
Experimental: Solutions containing 500 ppm (wt/wt) of blends of reb A, reb B, and reb N in water were prepared and evaluated at room temperature by five scientists with training and experience in the sensory evaluation of steviol glycosides. The samples were evaluated for sweetness intensity and other qualitative attributes and compared against Reb A. The results are shown in the following table: […]

[4] = Sensory evaluation in citric/citrate buffer at pH 3.2 (Example 4); design: key to Bitterness intensity: 0=none; 1=trace; 2=faint; 3=slight; 4=mild; 5=moderate; 6=definite; 7=strong; 8=very strong; 9=extreme
Experimental: as §1, with “600” for “500”, “ppm (wt/wt)” for “ppm”, “Reb A, Reb B” for “RebA, RebB, RebD”, “Reb N in citric/citrate buffer at pH 3.2” for “RebN”, “prepared” for “prepared in deionized water”

[5] = 600 ppm (wt/wt) in citric/citrate buffer pH 3.2

With `C=C1C[C@@]23CC[C@H]4[C@@](C)(CCC[C@@]4(C)C(=O)O[C@@H]4O[C@H](CO)[C@@H](O)[C@H](O)[C@H]4O[C@@H]4O[C@H](CO)[C@@H](O)[C@H](O)[C@H]4O)[C@@H]2CC[C@]1(O[C@@H]1O[C@H](CO)[C@@H](O)[C@H](O[C@@H]2O[C@H](CO)[C@@H](O)[C@H](O)[C@H]2O)[C@H]1O[C@@H]1O[C@H](CO)[C@@H](O)[C@H](O)[C@H]1O)C3` [Reb D, Rebaudioside D] the “Other Sweetness Quality” value [1] was “rounded, and syrupy and best”, the “Sweetness Linger” value [1] was “slight” and the “Sweetness Onset” value [1] was “quick”. The “Sweetness Intensity (percent sucrose equivalent sweetness)” value [1] was 7% SE and the Bitterness [1] was 2.
With `C=C1C[C@@]23CC[C@H]4[C@@](C)(CCC[C@@]4(C)C(=O)O[C@@H]4O[C@H](CO)[C@@H](O)[C@H](O[C@@H]5O[C@H](CO)[C@@H](O)[C@H](O)[C@H]5O)[C@H]4O[C@@H]4O[C@@H](C)[C@H](O)[C@@H](O)[C@H]4O)[C@@H]2CC[C@]1(O[C@@H]1O[C@H](CO)[C@@H](O)[C@H](O[C@@H]2O[C@H](CO)[C@@H](O)[C@H](O)[C@H]2O)[C@H]1O[C@@H]1O[C@H](CO)[C@@H](O)[C@H](O)[C@H]1O)C3` [Reb N] the “Other Sweetness Quality” value [1] was “rounded, and syrupy, and best”, the “Sweetness Linger” value [1] was “moderate” and the “Sweetness Onset” value [1] was “quick”. The “Sweetness Intensity (percent sucrose equivalent sweetness)” value [1] was 7.5% SE and the Bitterness [1] was 1.
With `C=C1C[C@@]23CC[C@H]4[C@@](C)(CCC[C@@]4(C)C(=O)O[C@@H]4O[C@H](CO)[C@@H](O)[C@H](O)[C@H]4O)[C@@H]2CC[C@]1(O[C@@H]1O[C@H](CO)[C@@H](O)[C@H](O[C@@H]2O[C@H](CO)[C@@H](O)[C@H](O)[C@H]2O)[C@H]1O[C@@H]1O[C@H](CO)[C@@H](O)[C@H](O)[C@H]1O)C3` [Reb A, Rebaudioside A] the “Other Sweetness Quality” value [1] was “spikey; also recorded: worst”, the “Sweetness Linger” value [1] was “moderate” and the “Sweetness Onset” value [1] was “slow”. For the same compound, the “Sweetness Intensity (percent sucrose equivalent sweetness)” value [1] was 6% SE, the Bitterness [1] was 5 and the Lingering bitter aftertaste [2] was “moderate”. It also gave a Sucrose equivalent sweetness ([2]; room temperature, three scientists) of 6%, a Bitterness ([2]; intensity scale 0-9) of 6 and a Licorice note ([2]; intensity scale 0-9) of 3. The “Sweetness intensity rated by the judges” value [3] was 6.0, the Bitter ([3]; five scientists) was “moderate” and the Linger ([3]; five scientists) was “moderate”. The “Sweet (quality)” value ([3]; five scientists) was “poor”, the Sweet onset ([3]; five scientists) was “slow” and the Bitter onset [4, 5] was “extremely rapid”. For the same compound, the Licorice [4, 5] was “slight”, the Lingering bitterness [4, 5] was “strong” and the Sweet profile [4, 5] was “peaky”. It also gave a Sucrose equivalent sweetness ([4]; 600 ppm (wt/wt) in citric/citrate buffer pH 3.2, room temperature, three scientists) of 7% and a Bitterness intensity ([4]; 600 ppm (wt/wt) in citric/citrate buffer pH 3.2, intensity scale 0-9) of 7.
